Activity calls are given as the source filed them.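 The calls were made as follows: active = curve reaches 40% activation over neutral controls at an AC40 no higher than the top valid tested concentration; inconclusive = no clear call, values can overlap the other calls; inactive = signal moving opposite to the expected increase, and the rest.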
Tested on: INS-1E GLuc insulin secretion reporter, luminescence, 2-3 h
Test: activators of glucose-dependent insulin secretion, dose response, cell-based, INS-1E, Gaussia luciferase, luminescence, cherry-pick, set 2 (AID 977607)

SMILES	AC40
Cc1ccc(OCC(=O)NC(=S)Nc2cccc(NC(=O)c3ccccc3)c2)cc1	11.3 µM
OC(c1ccccc1)(c1ccccc1)C1CCN(CCCOc2ccc(-c3ccc(F)cc3F)cc2)CC1	3.89 µM
Cc1cc(NC(=O)c2ccccc2F)n(-c2nc3ccccc3[nH]2)n1	5.86 µM
COc1cc(CN2C[C@@H]3N[C@H](C2)C3c2ccc(/C=C/c3ccccc3)cc2)cc(OC)c1 (some centres undefined)	5.5 µM
OC(CNCCc1ccc(C(F)(F)F)cc1)COC(c1ccccc1)c1ccccc1 (centres undefined)	6.21 µM
N#Cc1cccc(-c2ccc(C3[C@H]4CNC[C@@H]3N4Cc3cc(-c4ccccc4)on3)cc2)c1 (some centres undefined)	12 µM
NC1=NC[C@H](c2ccccc2)N1CCCCC1CCCCC1	28.8 µM
Cc1cccc(NC(=O)c2ccc(OCc3c(C)noc3C)cc2)c1C	1.54 µM
COC(=O)c1sccc1NC(=O)COc1ccc(Cl)cc1Cl	9.33 µM
NC(c1csc(NC(=O)Nc2cccc(C(F)(F)F)c2)n1)C1CCCCC1 (centres undefined)	6.13 µM
CCCCc1c(Cc2ccccc2)ncn1CCc1ccccc1OC	14.3 µM
Cc1ccccc1Cn1ccc(NC(=O)c2cc3nc(-c4ccco4)cc(C(F)(F)F)n3n2)n1	4.72 µM
COc1ccccc1CCn1cnc(-c2cccc(F)c2)c1C(C)C	14 µM
CCCCc1ccc(NC(=O)COc2ccc(C(=O)Nc3ccccc3OCC)cc2)cc1	2.88 µM
COc1ccc(/C=N/NC(=O)c2ccc(COc3ccccc3Cl)o2)c(OC)c1C	5.44 µM
COc1ccc(-c2nc(-c3cccnc3)no2)cc1OC	> 35 µM (inactive)
CNc1nc(Cl)nc2c1ncn2-c1ccccc1	15.6 µM
O=C(CCn1ccc2cc(S(=O)(=O)N3CCCC3)ccc21)NCc1cccc(F)c1	9.56 µM
O=C(NN=Cc1ccccc1Cl)c1cccc2ccccc12	11.6 µM
CCCCc1c(-c2ccccc2F)ncn1CCc1ccccc1OC	7.64 µM
COc1ccc(-c2cc3ccccc3oc2=O)cc1NC(=S)NC(=O)c1ccc2c(c1)OCCO2	4.75 µM
CC1(Cc2cc(Cl)ccc2C(F)(F)F)C(=O)Nc2cc(C(F)(F)F)ccc21 (centres undefined)	34 µM
Cc1ccc(NC(=O)CNC(=O)c2sc3ccccc3c2Cl)nc1	14.3 µM
OC(c1ccccc1)(c1nc(-c2cccc(C(F)(F)F)c2)cs1)C(F)(F)F (centres undefined)	10.3 µM
COC(=O)c1ccc(C2C(Oc3ccc(OC)cc3)C(=O)N2CCc2ccc(F)cc2)cc1 (centres undefined)	12.6 µM
CCOc1ccc(Nc2oc(-c3ccc(Cl)cc3)nc2C#N)cc1	5.14 µM
O=C(NCC1OCCc2ccccc21)c1ccc(NC(=O)c2ccc(Cl)cc2)cc1 (centres undefined)	5.18 µM

SMILES	AC40
COc1ccc(-c2cnnn2-c2ccc(N)cc2)cc1OC	> 35 µM (inactive)
CCCNC(=O)c1nnsc1S(=O)(=O)c1ccc(Cl)cc1	1.63 µM
O=C(Nc1nnc(-c2ccccc2SCc2ccccc2F)s1)Nc1ccccc1F	16.7 µM
Cc1ccc(-c2cc(C(=O)NCc3cnn(C)c3)c3cc(Br)ccc3n2)cc1	3.7 µM
CC(C)CCn1c(N2CCCC2)nc2c1c(=O)[nH]c(=O)n2C	31.7 µM
O=C(COc1ccccc1)Nc1sc2c(c1C(=O)NCc1cccnc1)CCCC2	13.1 µM
CC(NC(=O)COC(=O)c1ccccc1Nc1ccccc1)c1ccccc1 (centres undefined)	12.2 µM
Cc1ccc(-c2ccc(C3[C@@H]4CN(Cc5cccc(F)c5)C[C@H]3N4)cc2)cc1 (some centres undefined)	3.07 µM
COc1cccc(-c2ccc(C3[C@@H]4CN(Cc5cccc(F)c5)C[C@H]3N4)cc2)c1 (some centres undefined)	4.47 µM
Cc1cccc(C(C)C)c1NC(=O)COC(=O)c1cccc(S(=O)(=O)N2CCc3ccccc3C2)c1	10.9 µM
CC(C)CC#Cc1ccc2c(c1)O[C@H](CN(C)C(=O)C1CCCCC1)[C@@H](C)CN([C@@H](C)CO)S2(=O)=O	10.2 µM
C=CCN(Cc1ccc(OC)c(OC)c1)C(=O)N1CCOCC1	> 35 µM (inactive)
COc1cc(C(=O)Nc2ccn(C)n2)ccc1OC(F)F	> 35 µM (inactive)
C/C(=N/NC(=O)c1ccc(Br)s1)c1ccncc1	> 35 µM (inactive)
N#Cc1sc2nc(N3CCCCC3)c3c(c2c1N)CCCC3	28.6 µM
COc1cc(OC)c2c3c(c(C4CCCCC4)nc2c1)CCC3	9.8 µM
CC1CC1C(=O)Nc1cc(C(F)(F)F)ccc1N1CCOCC1 (centres undefined)	1.46 µM
O=c1c2ccccc2sn1-c1ccc(F)cc1	7.1 µM
COCCn1c(=NC(=O)c2cc(Cl)sc2Cl)sc2cc(S(N)(=O)=O)ccc21	7.51 µM
CC(=O)Nc1c(C(=O)C2CC2)oc2ccccc12	6.8 µM
Cc1[nH]c2ccc(OC(F)(F)F)cc2c1CCNCc1ccc(Cl)cc1	6.14 µM
COc1ccc(Cc2nnc(NC(=O)Cc3cccs3)s2)cc1OC	0.234 µM
O=C(Nc1ccc2c(c1)OCO2)N1C[C@@H]2N[C@H](C1)C2c1ccc(C=Cc2ccccc2)cc1 (some centres undefined)	9.05 µM
Clc1ccc(-c2ccnc(Oc3cc(Cl)ccc3Cl)n2)cc1	7.53 µM
COc1ccccc1C(=O)NC(=S)Nc1ccc2[nH]c(=O)[nH]c2c1	25.1 µM
CCOc1nc(NC(=O)NS(=O)(=O)c2cccc(Cl)c2)nc(-c2ccccc2)n1	> 35 µM (inactive)
CCc1ccc(-c2c(C)sc(NC(=O)C3CCC3)c2C#N)cc1	5.78 µM

SMILES	AC40
Nc1nc(N)c2cc(Sc3ccc(Cl)cc3)ccc2n1	7.16 µM
COc1cc2c(cc1OC)-c1cc(Nc3ccc(N(C)C)cc3)nc(=O)n1CC2	5.31 µM
O=C(Nc1ccc2ccccc2c1)c1cccc2ccccc12	8.55 µM
O=C(CC1c2ccccc2Oc2ccccc21)Nc1ccccc1C(F)(F)F	6.13 µM
CC1(C(=O)NS(=O)(=O)c2ccc(Cl)s2)CCN1C(=O)C1(c2ccccc2)CCCC1 (centres undefined)	10.7 µM
COc1ccc(C(=O)NCC(=O)OCC(=O)Nc2ccc(C)c(S(=O)(=O)N(C)C)c2)cc1OC	1.67 µM
FC(F)(F)c1cc(CCN2CCNC[C@@H]2CC2CCCCC2)cc(C(F)(F)F)c1	5.27 µM
Cc1ccccc1C(=O)Nc1nnc(-c2ccc(C(C)(C)C)cc2)s1	18.3 µM
CCCCn1c(N2CCCC2)nc2c1c(=O)[nH]c(=O)n2C	5.57 µM
C=C[C@@]1(C)CC(=O)[C@]2(O)[C@@]3(C)[C@@H](O)CCC(C)(C)[C@@H]3[C@H](O)[C@H](OC(C)=O)[C@@]2(C)O1	0.0336 µM
NC(c1csc(Nc2ccc(C(F)(F)F)cn2)n1)C1CCCCC1 (centres undefined)	9.81 µM
Cc1ccc(-n2ncc3c(=O)n(CC(=O)Nc4cccc(Cl)c4)cnc32)cc1C	6.37 µM
O=c1c2ccc(F)cc2sn1-c1ccccc1	4.2 µM
O=C(N/N=C/c1ccc(O)cc1O)NC12CC3CC(CC(C3)C1)C2	18.1 µM
COc1ccc(CN(C)C(=O)Cn2cc(C)c(=O)[nH]c2=O)cc1OC	> 35 µM (inactive)
CCNC(=O)NC(=O)C(C)OC(=O)c1oc2ccccc2c1CSC1CCCCC1 (centres undefined)	5.51 µM
O=c1c2ccccc2nc(-c2ccco2)n1/N=C/c1ccccc1O	14.7 µM
CCOc1cc(N2CCOCC2)c(OCC)cc1NC(=O)COC(=O)c1cc2ccccc2cc1O	10.3 µM
CC(C)(C)c1nc2ccc(Cl)cn2c1CC1CCCCC1	16 µM
Cc1ccc(C(C)C)c(OCCNCCc2ccccc2)c1	15 µM
COc1ccc(-n2sc3ccccc3c2=O)cc1	3.14 µM
CCOC(=O)c1[nH]c2cc(OC)c(OC)cc2c1NC(=O)c1ccc2c(c1)OCO2	18.1 µM
CCOc1ccccc1Nc1cc2n(c(=O)n1)CCc1cc(OC)c(OC)cc1-2	1.07 µM
CCn1nc(C(=O)Nc2ccc3nc(C)sc3c2)c2ccccc2c1=O	25.1 µM
CCOC(=O)c1cnc2ccc(Cl)cc2c1Nc1ccc(S(=O)(=O)Nc2ncccn2)cc1	3.45 µM

Source: PubChem BioAssay AID977607 (Broad Institute, 2014)
